Reference: patent US6737383B1, “Herbicidal oxadiazolidines” (priority 1999, dated 2004)

Legend:
[1] = test system: bedstraw; assay: Test B pre/postemergence bedstraw; assay type: in vivo, Galium aparine
Method in brief: (§1)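 Test chemicals in a non-phytotoxic solvent mixture with surfactant were sprayed preemergence onto planted seeds and postemergence onto plants 2 to 18 cm tall (1- to 4-leaf stage). After twelve to sixteen days in a greenhouse, injury was visually rated against untreated controls from 0 (no effect) to 10 (complete control).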

[2] = test system: blackgrass; assay: Test B pre/postemergence blackgrass; assay type: in vivo, Alopecurus myosuroides
Method in brief: as §1

[3] = test system: surinam grass; assay: Test B pre/postemergence surinam grass; assay type: in vivo, Brachiaria decumbens
Method in brief: as §1

[4] = test system: cocklebur; assay: Test B pre/postemergence cocklebur; assay type: in vivo, Xanthium strumarium
Method in brief: as §1

[5] = test system: corn; assay: Test B pre/postemergence corn; assay type: in vivo, Zea mays
Method in brief: as §1

[6] = test system: giant foxtail; assay: Test B pre/postemergence giant foxtail; assay type: in vivo, Setaria faberii
Method in brief: as §1

[7] = test system: morningglory; assay: Test B pre/postemergence morningglory; assay type: in vivo, Ipomoea hederacea
Method in brief: as §1

[8] = test system: pigweed; assay: Test B pre/postemergence pigweed; assay type: in vivo, Amaranthus retroflexus
Method in brief: as §1

[9] = test system: rape; assay: Test B pre/postemergence rape; assay type: in vivo, Brassica napus
Method in brief: as §1

[10] = test system: soybean; assay: Test B pre/postemergence soybean; assay type: in vivo, Glycine max
Method in brief: as §1

[11] = test system: sugar beet; assay: Test B pre/postemergence sugar beet; assay type: in vivo, Beta vulgaris
Method in brief: as §1

[12] = test system: velvetleaf; assay: Test B pre/postemergence velvetleaf; assay type: in vivo, Abutilon theophrasti
Method in brief: as §1

[13] = test system: wheat; assay: Test B pre/postemergence wheat; assay type: in vivo, Triticum aestivum
Method in brief: as §1

[14] = test system: wild oat; assay: Test B pre/postemergence wild oat; assay type: in vivo, Avena fatua
Method in brief: as §1

[15] = test system: rice; assay: Test B flood test rice; assay type: in vivo, Oryza sativa
Method in brief: (§2)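 Flood test on plants grown to the 2-leaf stage; treated plants kept in greenhouse twelve to sixteen days, then visually rated against controls on a 0 (no effect) to 10 (complete control) scale.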

[16] = test system: smallflower flatsedge; assay: Test B flood test smallflower flatsedge; assay type: in vivo, Cyperus difformis
Method in brief: as §2

[17] = Postemergence, Rate 62 g/ha, scale 0 to 10, 0 is no effect, 10 is complete control
[18] = Postemergence, Rate 250 g/ha, scale 0 to 10, 0 no effect, 10 complete control
[19] = Preemergence, Rate 62 g/ha, scale 0 to 10 (0 no effect, 10 complete control)
[20] = Preemergence, Rate 125 g/ha, scale 0 to 10 (0 no effect, 10 complete control)
[21] = Preemergence, Rate 250 g/ha, scale of 0 to 10 where 0 is no effect and 10 is complete control
[22] = Preemergence, Rate 500 g/ha, scale 0 (no effect) to 10 (complete control)
[23] = Rate 125 g/ha, Postemergence, scale 0 to 10, 0 no effect, 10 complete control
[24] = Rate 500 g/ha, Postemergence, scale 0 to 10, 0 no effect, 10 complete control
[25] = Rate 125 g/ha, Postemergence section (flood test species), scale 0 to 10, 0 no effect, 10 complete control
[26] = Rate 500 g/ha, listed under Postemergence (flood test species), scale 0 to 10, 0 no effect, 10 complete control
[27] = flood test, listed under Postemergence, Rate 250 g/ha, scale 0 to 10, 0 no effect, 10 complete control

CC(C)N(C(=O)n1oc(=O)n(Cc2cccs2)c1=O)c1ccc(F)cc1 [Compound 80]
Bedstraw plant response rating [1, 17]: 0 | Bedstraw plant response rating [1, 18]: 0 | Bedstraw plant response rating [1, 19]: 0 | Plant response rating, Bedstraw [1, 20]: 0 | Plant response rating, Bedstraw [1, 21]: 0 | Bedstraw plant response rating [1, 22]: 0 | Bedstraw plant response rating [1, 23]: 0 | Bedstraw plant response rating [1, 24]: 6 | Blackgrass plant response rating [2, 17]: 2 | Blackgrass plant response rating [2, 18]: 3 | Blackgrass plant response rating [2, 19]: 0 | Plant response rating, Blackgrass [2, 20]: 2 | Plant response rating, Blackgrass [2, 21]: 4 | Blackgrass plant response rating [2, 22]: 6 | Blackgrass plant response rating [2, 23]: 2 | Blackgrass plant response rating [2, 24]: 5 | B. signalgrass plant response rating [3, 17]: 0 | B. signalgrass plant response rating [3, 18]: 0 | B. signalgrass plant response rating [3, 19]: 0 | Plant response rating, B. signalgrass [3, 20]: 0 | Plant response rating, B. signalgrass [3, 21]: 0 | B. signalgrass plant response rating [3, 22]: 4 | B. signalgrass plant response rating [3, 23]: 0 | B. signalgrass plant response rating ([3]; Rate 500 g/ha, Postemergence, scale of 0 to 10 where 0 is no effect and 10 is complete control): 0 | Cocklebur plant response rating [4, 17]: 0 | Cocklebur plant response rating [4, 18]: 0 | Cocklebur plant response rating [4, 19]: 0 | Plant response rating, Cocklebur [4, 20]: 0 | Plant response rating, Cocklebur [4, 21]: 0 | Cocklebur plant response rating [4, 22]: 0 | Cocklebur plant response rating [4, 23]: 0 | Cocklebur plant response rating [4, 24]: 1 | Corn plant response rating [5, 17]: 0 | Corn plant response rating [5, 18]: 0 | Corn plant response rating [5, 19]: 0 | Plant response rating, Corn [5, 20]: 0 | Plant response rating, Corn [5, 21]: 0 | Corn plant response rating [5, 22]: 0 | Corn plant response rating [5, 23]: 0 | Corn plant response rating [5, 24]: 0 | Giant foxtail plant response rating [6, 17]: 0 | Giant foxtail plant response rating [6, 18]: 3 | Giant foxtail plant response rating [6, 19]: 6 | Plant response rating, Giant foxtail [6, 20]: 8 | Plant response rating, Giant foxtail [6, 21]: 8 | Giant foxtail plant response rating [6, 22]: 9 | Giant foxtail plant response rating [6, 23]: 2 | Giant foxtail plant response rating [6, 24]: 7 | Morningglory plant response rating [7, 17]: 7 | Morningglory plant response rating [7, 18]: 10 | Morningglory plant response rating [7, 19]: 0 | Plant response rating, Morningglory [7, 20]: 0 | Plant response rating, Morningglory [7, 21]: 0 | Morningglory plant response rating [7, 22]: 0 | Morningglory plant response rating [7, 23]: 8 | Morningglory plant response rating [7, 24]: 10 | Redroot pigweed plant response rating [8, 17]: 2 | Redroot pigweed plant response rating [8, 18]: 4 | Plant response rating, Redroot pigweed [8, 20]: 7 | Plant response rating, Redroot pigweed [8, 21]: 7 | Redroot pigweed plant response rating [8, 22]: 7 | Redroot pigweed plant response rating [8, 23]: 3 | Redroot pigweed plant response rating [8, 24]: 4 | Rape plant response rating [9, 17]: 2 | Rape plant response rating [9, 18]: 3 | Rape plant response rating [9, 19]: 0 | Plant response rating, Rape [9, 20]: 3 | Plant response rating, Rape [9, 21]: 4 | Rape plant response rating [9, 22]: 5 | Rape plant response rating [9, 23]: 2 | Rape plant response rating [9, 24]: 3 | Soybean plant response rating [10, 17]: 0 | Soybean plant response rating [10, 18]: 1 | Soybean plant response rating [10, 19]: 0 | Plant response rating, Soybean [10, 20]: 0 | Plant response rating, Soybean [10, 21]: 0 | Soybean plant response rating [10, 22]: 0 | Soybean plant response rating [10, 23]: 1 | Soybean plant response rating [10, 24]: 2 | Sugarbeets plant response rating [11, 18]: 4 | Sugarbeets plant response rating [11, 19]: 0 | Plant response rating, Sugarbeets [11, 20]: 3 | Plant response rating, Sugarbeets [11, 21]: 4 | Sugarbeets plant response rating [11, 22]: 5 | Sugarbeets plant response rating [11, 23]: 3 | Sugarbeets plant response rating [11, 24]: 7 | Velvetleaf plant response rating [12, 17]: 0 | Velvetleaf plant response rating [12, 18]: 0 | Velvetleaf plant response rating [12, 19]: 0 | Plant response rating, Velvetleaf [12, 20]: 0 | Plant response rating, Velvetleaf [12, 21]: 2 | Velvetleaf plant response rating [12, 22]: 3 | Velvetleaf plant response rating [12, 23]: 0 | Velvetleaf plant response rating [12, 24]: 0 | Wheat plant response rating [13, 17]: 0 | Wheat plant response rating [13, 18]: 0 | Wheat plant response rating [13, 19]: 0 | Plant response rating, Wheat [13, 20]: 0 | Plant response rating, Wheat [13, 21]: 0 | Wheat plant response rating [13, 22]: 0 | Wheat plant response rating [13, 23]: 0 | Wheat plant response rating [13, 24]: 0 | Wild oats plant response rating [14, 17]: 0 | Wild oats plant response rating [14, 18]: 0 | Wild oats plant response rating [14, 19]: 0 | Plant response rating, Wild oats [14, 20]: 2 | Plant response rating, Wild oats [14, 21]: 3 | Wild oats plant response rating [14, 22]: 5 | Wild oats plant response rating [14, 23]: 0 | Wild oats plant response rating [14, 24]: 0 | Rice plant response rating [15, 17]: 0 | Rice plant response rating [15, 25]: 0 | Rice plant response rating [15, 26]: 2 | Rice plant response rating [15, 27]: 0 | S. Flatsedge plant response rating [16, 17]: 0 | S. Flatsedge plant response rating [16, 25]: 0 | S. Flatsedge plant response rating [16, 26]: 3 | S. Flatsedge plant response rating [16, 27]: 3
